The values that follow come from patent US9469878B2, “Methods of treating cancer comprising targeting NQO1” (The Board of Regents of the University of Texas System, priority 2010, dated 2016).

Assay [1] concerns PC-3 cells. Briefly: Intracellular NAD+ and ATP levels. Format: cell-based, human. Conditions: β-lap exposure. On the procedure: ATP levels were analyzed from whole-cell extracts using CellTiter-Glo Luminescent Cell Viability Assays (Promega, Madison, Wis.) following the manufacture's instructions. Data were graphed as means±SE from at least three independent experiments in triplicates.

Assay [2] deals with PC-3 cells. The assay is described as follows: Apoptosis by TUNEL assay. Format: cell-based, human. The following applies: 2 μM β-lap alone, NQO1-expressing PC-3 cells. Here is the method:
Apoptosis was quantified using ApoDirect™ (TUNEL) assays from BD Pharmingen as described (Bey et al., 2007, Proc. Natl. Acad. Sci. USA, 104:11832-837). Samples were analyzed by using FC-500 flow cytometer (Beckman Coulter Electronics, Brea, Calif.) and Elite acquisition software. Data were expressed as means±SE from three independent experiments.

For assay [3], the target named is T1, NQO1 (Homo sapiens, UniProt P15559, R139W).
T1 construct: S9 Supernatants were prepared from cells in mid-log to late log phase growth; endogenous in cells; host or cells: cancer cell lines, mostly from a non-small cell lung cancer panel (e.g. Calu-3); S9 supernatants
Briefly: NQO1 enzyme assays using β-lapachone or the standard menadione substrates. Format: biochemical. The following applies: β-lapachone as substrate. Here is the method: (§1) S9 Supernatants were prepared from cells in mid-log to late log phase growth. […] The cell suspensions were sonicated on ice four times, using 10-s pulses, and then centrifuged at 14,000×g for 20 min. The S9 supernatants were aliquoted into microcentrifuge tubes and stored at −80° C. until used. A 1× protease inhibitor cocktail was added to prevent enzyme activity degradation. […] Menadione was used as the electron acceptor. NADH was used as the electron donor.
(§2) NQO1 activity was measured using NADH (200 μM) as the immediate electron donor and menadione (10 μM) as the intermediate electron acceptor. […] Biochem. Biophys. […] NADH: cytochrome b5 reductase was measured using NADH (200 μM) as the electron donor, and […] was measured using NADPH (200 μM) as electron donor (45) in a Beckman DU 640 spectrophotometer (Beckman Coulter, Fullerton, Calif.). Reactions were carried out at 37° C. and were initiated by the addition of S9 supernatants. Varying amounts of supernatants, from 10 to 40 μL, were used to ensure linearity of rates with protein concentration. […] Results shown are the average enzyme activity for three separate cell extractions±S.D. or both values from duplicate experiments.
(§3) Cell lines, mostly from a 5-panel nonsmall cell lung cancer panel from the UT Southwestern SPORE, were assessed for NQO1 polymorphism status and then monitored for NQO1 enzyme assays using β-lapachone or the standard menadione substrates. […] NQO1*2/*2 and *3/*3 polymorphisms were detected from NQO1 *1/*1 wild-type sequences by PCR-RFLP. Genomic DNA was extracted from the cells using Qiagen spin columns. Using previously described oligonucleotide primers, PCR products underwent gel electrophoresis. Final genotyping was determined based on the size and pattern of separated bands diagnostic for *1/*1 (wild-type), or polymorphic *2/*2 or *3/*3 NQO1 polymorphisms.

Assay [4] has as its system NQO1. The assay is described as above. The class given is biochemical, human. Conditions: β-lapachone as substrate, HCC44 *1/*2. On the procedure:
as §1, §2, §3

Assay [5] relates to H596/NSCLC. The assay is described as follows: β-lapachone lethality in NQO1 genotyped cancer cells. Format: cell-based, human. The following applies: NQO1 genotype *2/*2, 2 h exposure. On the procedure:
(§4) LD50 responses were plotted as a function of NQO1 enzymatic levels. The notations, *1/*1 and *2/*2 represent the NQO1 status of each cell line as homozygous wild type (*1/*1) or homozygous polymorphic (*2/*2) genotypes. […] In (b), Kaplan-Meier survival curve of mice bearing orthotopic lung tumors implanted with *1/*1 A549 cells. Mice were treated intravenously (5 doses every other day) with β-lap-HPβ-CD or vehicle alone (HPβ-CD).
as §3

In assay [6] the test system is H2882/NSCLC. Described as above. Format: cell-based, human. On the procedure:
as §4, §3

For assay [7], the system named is PARP-1 in PC-3 cells. Briefly: PAR formation (PARP-1 hyperactivation), Western blot. Format: cell-based, human. On the procedure: Whole-cell extracts were prepared, proteins separated by SDSPAGE, and Western blots developed using SuperSignal® West Pico Chemiluminescent substrate (Thermo Scientific, Rockford, Ill.), and exposed using Autoradiography Film (Denville Scientific Inc., Metuchen, N.J.). Both PAR (BD Pharmingen, San Jose, Calif.) and γH2AX (Upstate, Billerica, Mass.) antibodies were used at 1:2000 and 1:1000 dilutions, respectively. […] or α-tubulin levels were used as loading control.

Assay [8] relates to A549 cells. The assay is described as follows: LD50 responses of NSCLC cell lines treated with β-Lap. Format: cell-based, human. Conditions: NQO1 enzyme activities ≧50 units, β-Lap 2 h, 7 days later. Here is the method: as §4
The test system of assay [9] is H441 cells. The assay is described as above. Conditions: NQO1 enzyme activities ≧50 units, β-Lap 2 h, 7 days later. The class given is cell-based, human. On the procedure: as §4

Where “and” joins values, the source holds several entries; their conditions need not be identical. Equal values may be shown once. A value given as a limit tells only on which side of the number the result lay.

T1 sequence (P15559 whole entry R139W): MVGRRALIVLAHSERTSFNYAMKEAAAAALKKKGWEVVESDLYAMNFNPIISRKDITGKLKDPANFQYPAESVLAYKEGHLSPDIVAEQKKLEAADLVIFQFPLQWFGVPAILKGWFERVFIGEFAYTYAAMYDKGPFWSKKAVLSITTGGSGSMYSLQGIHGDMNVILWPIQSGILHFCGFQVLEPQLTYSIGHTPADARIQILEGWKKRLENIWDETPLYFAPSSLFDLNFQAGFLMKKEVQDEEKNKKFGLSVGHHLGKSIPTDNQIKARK

`CC1(C)CCC2=C(O1)c1ccccc1C(=O)C2=O` [β-Lap, 3,4-dihydro-2,2-dimethyl-2H-naphtho[1,2-b]pyran-5,6-dione]: in [1], the “Time to exhaustion of NAD+ and ATP levels” value is given as at most 120 min. In addition, the Apoptosis in assay [2] amounted to 5±2%. Moreover, the “NQO1 activity, β-Lap” value is 243 ± 2 nmol/min/µg in assay [3] (Calu-3/NSCLC *3/*3); 120 ± 3 nmol/min/µg in assay [3] (H2009/NSCLC *3/*3); 369 ± 9 nmol/min/µg in [3] (HCC1171/NSCLC *3/*3); 138 ± 3 nmol/min/µg in assay [3] (T47D/BreastCancer *3/*3); 879 ± 14 nmol/min/µg in assay [4]. Further, the “β-Lap Lethality LD50” value is >20 µM and >10 µM in [5]; above 20 µM in assay [6] (NQO1 genotype *2/*2, 2 h exposure). For the same compound, the “LD50 + DIC” value in assay [6] (*2/*2, 2 h, + dicoumarol (40 μM)) was above 40 µM. Moreover, the “PAR formation after combined treatment” value in assay [7] (1 Gy+3 μM β-lap, PC-3 cells, at 60 mins, no apparent levels after each agent alone) is recorded as “dramatic PAR formation”. The “Time to significant accumulation of PAR” value in [7] (β-lap-exposed PC-3 cells, blocked by dicoumarol) is 10 to 20 min. In addition, the LD50 came to 2.5 µM in assay [8] and 1.5 µM in [9].
